Data from patent US20140088006A1, “Stem Cell Mobilization and Tissue Repair and Regeneration” (Wellstat Therapeutics Corporation, priority 2011, published 2014).
Entries after “also recorded” stand apart in the source; their conditions may differ. No end group written: not given here.

Tested on: human umbilical cord blood CD34+ cells
Assay: Transwell migration of CD34+ cells toward SDF-1α
Assay type: cell-based
Protocol: CD34^+ cell migration toward 100 ng/mL SDF-1α in a Corning Transwell device (24 well format, 5 μm pore size, polycarbonate membrane) was studied with and without Compound X and in the presence or absence of either anti-CXCR4 antibody or the CXCR4 antagonist AMD3100.
The CD34^+ population of cells from human umbilical cord blood was obtained from Lonza, defrosted and expanded ex vivo with cytokine cocktail for 6 days according to standard procedures. Briefly, 10 wells of two 12 well dishes were seeded at a density of 8×10^4 cells per well in 2 mL of CellGenix serum free growth medium (SCGM). Cells were allowed to expand in a 37° C. incubator (5% CO2, 86% RH) for 6 days. During the expansion, the 10 wells of one of the two plates received treatments of Compound X to a final concentration of 5 ng/mL (10 μL from freshly prepared 1 μg/mL stock in SCGM) at 24 hours and 72 hours after initiation of the culture.
3 hours prior to the start of the migration assay, both control and Compound X expanded cells were pulsed with either 0, 5 ng/mL or 5 μg/mL Compound X. Migration assay was performed according to the method described (Tavor et al. 2005). Cells were centrifuged for 5 minutes at 1100 RPM and resuspended at a density of 2×10^6 cells/mL in CellGenix SCGM serum free medium containing 1% Fraction V BSA either in the presence or absence of 5 ng/mL or 5 μg/mL Compound X for 3 hours. The feeder tray (bottom) was prepared with 600 μL of serum free SCGM supplemented with 1% BSA in the presence or absence of SDF-1α. All treatments were conducted in triplicate. The wells of the migration chamber (top) received 100 μL of cells from the 2×10^6 cells/mL suspensions, preincubated with 5 ng/mL or 5 μg/mL Compound X or Control. All treatments were conducted in triplicates. The plates were placed in a 37° C. incubator (5% CO2, 86% RH) and cells were allowed to migrate for 4 hours. […]
The cells were thawed at room temperature. […] 150 μL of the resulting cell lysates were transferred to a new 96 well plate and the fluorescence was read on a […] SpectraMax M2 fluorimeter (ex 485, em 538). […]

## FPHFDLSHGSAQV [Compound X, tridecapeptide that acts on stem cells]
5 ng/mL Compound X
  interference with the effect of AMD3100 or anti CXCR4 antibody on migration: did not interfere
Cells expanded with 5 ng/mL and/or pulsed 3 hours with Compound X, 100 ng/mL SDF-1α, 4 hours
  CD34+ cell Transwell migration toward SDF-1α: no significant difference; also recorded: had no effect
